Data published in patent US11980620B2, “Compounds and methods for treatment of Diamond Blackfan anemia” (THE CHILDREN'S MEDICAL CENTER CORPORATION, priority 2017, dated 2024).
pEC50: −log10 of the molar value.

Experiments:
Format in all cases: cell-based, human
control iPSCs = test: Erythroid differentiation (CD71+GlyA+) of CD34-5F cells from control iPSCs
Experimental: (FIG. 8A) The distribution of 1440 compounds by Z-score in a proliferation-based screen of the Sigma LOPAC chemical library. DBA CD34-5F cells were plated in erythroid-promoting conditions in 384-well format. Erythroid proliferation was measured in the presence of 5 μM of each compound, and converted into Z-scores. The screen was carried out with 3 RPS19 DBA and 2 normal iPSC lines. (FIG. 88) Dose-dependent effect of SMER28 (in μM) on erythroid differentiation, shown as the absolute number of erythroid cells in each drug-treated condition normalized to vehicle (DMSO) control. Erythroid cells were analyzed on day 9 of differentiation using markers CD71 and GlyA. […] (FIG. 8C) Absolute number of erythroid cells (analyzed on day 9) in each drug-treated condition normalized to vehicle (DMSO) control (4 independent experiments). […]
(FIG. 12A) Erythroid differentiation of control and DBA CD34-5F cells treated with DMSO vehicle or SMER28 (10 μM) during the initial CD34^+ progenitor phase (day 0-4 of differentiation), or stage I of erythroid culture (day 4-9 of differentiation). Percent of erythroid cells after stage I of differentiation is indicated in top left for each condition, and quantitated in (FIG. 12B). […] GFP^+ RPS19^sh and GFP^− control cells were quantitated separately. […] Arrows indicate enucleated RBCs, which are quantitated by flow cytometry. […]

p21 = p21 levels in CD34+ cells of DBA patient derived erythroid cell population; conditions: 1.5 μM; in vitro
Excerpt: Accordingly, in another embodiment, an autophagy activator as disclosed herein can be administered to a subject according to the methods as disclosed herein in an effective dose to decrease the levels of p21 expression in CD34+ cells present in an erythroid cell population obtained from the subject by at least about 1%, at least about 2%, at least about 3%, at least about 5%, at least about 10%, at least about 15%, least about 20%, at least about 30%, at least about 40%, at least about 50%, at least about 60%, at least about 70%, at least about 80%, at least about 90%, at least about 95%, at least about 98%, at least about 99%, or more than 99%, as compared to in the absence of an autophagy activator.

[1] = test system: erythroid cells from CB CD34+; test: Enucleation efficiency of GLYA+ cells at end of stage III; conditions: treatment during stages I-III; vehicle 2.4%±1.2
Experimental: (FIG. 12A) Erythroid differentiation of control and DBA CD34-5F cells treated with DMSO vehicle or SMER28 (10 μM) during the initial CD34^+ progenitor phase (day 0-4 of differentiation), or stage I of erythroid culture (day 4-9 of differentiation). Percent of erythroid cells after stage I of differentiation is indicated in top left for each condition, and quantitated in (FIG. 12B). Data are shown as mean f s.e.m. of 4 independent experiments, with 2 control and 4 DBA iPSCs. (FIG. 12C) Same as (FIG. 12A) for CB CD34+ cells transduced with shRPS19 hairpins. GFP^+ RPS19^sh and GFP^− control cells were quantitated separately. […] (FIG. 12D) RBC pellets at the end of stage III initiated with equal numbers of CD34-5F or CB progenitors. SMER28 was added at […]. (FIG. 12E) May-Grunwald-Giemsa stain of erythroid cells from CB CD34^+ at end of stage III. Arrows indicate enucleated RBCs, which are quantitated by flow cytometry. (FIG. 12F) Quantitation of the enucleation efficiency (left) of GLYA^+ cells. Data in FIGS. 12E-12F represents 3 independent experiments. For all panels, *p<0.05, **p<0.01.
Erythroblasts proliferate rapidly to give rise to terminally differentiated RBCs. […]

C=CCNc1ncnc2ccc(Br)cc12 [SMER28, 6-Bromo-N-2-propenyl-4-quinazolinam]
effect on number of erythroid cells normalized to vehicle (control iPSCs): 2.5 fold
pEC50 (control iPSCs; Homo sapiens, iPSC, read-out: EC50, number of erythroid cells): 5.80
levels of p21 in CD34+ cells (p21): decreased
efficiency of enucleation [1]: 5.6%±1.6
